# Read-outs that look alike come from different tables or passages of the source.
# How the values were obtained:
# Rhesus PDE2A3 = Rhesus PDE2A3 (Macaca mulatta, UniProt B3VTJ2); assay: PDE2 fluorescence polarization (IMAP FP) inhibition assay, rhesus PDE2A3; type: biochemical, rhesus macaque
# human PDE2A1 = human PDE2A1 (Homo sapiens (Human), UniProt O00408); assay: PDE2 IMAP FP inhibition assay, human PDE2A1 (selectivity panel format); type: biochemical
# Procedure, shortened: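 Enzyme dosed to give about 20% substrate turnover acts for 60 min at room temperature on 50 nM FAM-cAMP plus 1000 nM cGMP (Tris pH 7.2, MgCl2, DTT, Tween-20 buffer). IMAP binding solution then stops the reaction; after 1 h, polarization is measured from parallel and perpendicular fluorescence.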
# P-glycoprotein (P-gp) = P-glycoprotein (P-gp) (Homo sapiens (Human), UniProt P08183); assay: P-gp transport, experimental BA/AB ratio, human; type: in vitro ADME; details: LLC-PK1, 1 μM substrate concentration
# Chain of P-glycoprotein (P-gp) (P08183 whole entry): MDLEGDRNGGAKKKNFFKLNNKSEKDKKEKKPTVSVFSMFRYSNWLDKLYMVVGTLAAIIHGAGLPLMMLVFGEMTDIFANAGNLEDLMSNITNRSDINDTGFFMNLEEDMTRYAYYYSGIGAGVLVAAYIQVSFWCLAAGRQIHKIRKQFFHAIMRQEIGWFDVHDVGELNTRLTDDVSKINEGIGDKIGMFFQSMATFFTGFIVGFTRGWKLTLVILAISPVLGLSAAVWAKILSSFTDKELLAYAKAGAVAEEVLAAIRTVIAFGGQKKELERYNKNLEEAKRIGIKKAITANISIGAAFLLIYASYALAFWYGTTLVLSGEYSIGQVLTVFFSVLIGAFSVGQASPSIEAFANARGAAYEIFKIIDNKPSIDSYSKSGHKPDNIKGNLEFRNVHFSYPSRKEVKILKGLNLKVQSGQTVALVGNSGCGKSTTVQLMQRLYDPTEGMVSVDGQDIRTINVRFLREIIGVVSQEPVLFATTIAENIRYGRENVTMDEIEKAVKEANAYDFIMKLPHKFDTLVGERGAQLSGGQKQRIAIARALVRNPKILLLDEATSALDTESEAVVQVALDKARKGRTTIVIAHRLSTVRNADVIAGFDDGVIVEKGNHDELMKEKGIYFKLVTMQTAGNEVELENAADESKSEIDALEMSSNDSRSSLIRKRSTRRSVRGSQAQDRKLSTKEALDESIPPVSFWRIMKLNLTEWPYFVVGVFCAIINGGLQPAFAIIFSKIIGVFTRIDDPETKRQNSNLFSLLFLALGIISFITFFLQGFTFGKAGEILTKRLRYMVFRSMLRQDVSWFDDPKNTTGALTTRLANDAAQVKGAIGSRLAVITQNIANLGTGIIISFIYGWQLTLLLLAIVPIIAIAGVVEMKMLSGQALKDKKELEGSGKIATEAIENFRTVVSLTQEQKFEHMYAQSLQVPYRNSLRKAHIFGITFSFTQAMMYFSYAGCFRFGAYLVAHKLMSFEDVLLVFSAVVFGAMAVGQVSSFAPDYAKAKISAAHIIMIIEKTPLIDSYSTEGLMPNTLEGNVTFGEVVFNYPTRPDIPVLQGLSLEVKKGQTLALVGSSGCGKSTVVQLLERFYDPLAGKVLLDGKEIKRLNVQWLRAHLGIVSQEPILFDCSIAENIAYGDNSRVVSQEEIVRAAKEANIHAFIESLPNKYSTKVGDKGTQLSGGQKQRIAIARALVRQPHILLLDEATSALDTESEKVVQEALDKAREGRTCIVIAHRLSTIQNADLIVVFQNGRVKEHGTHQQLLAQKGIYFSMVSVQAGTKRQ
# Source text: (§1) See Doan et al. “Passive permeability and P-glycoprotein-mediated efflux differentiate central nervous system (CNS) and non-CNS marketed drugs”, J. Pharm. Exper. […] Desirable human BA/AB ratio is less than 2.0. […] See, for example, Desai, et al. Integration of in Silico and in Vitro Tools for Scaffold Optimization during Drug Discovery: Predicting P-glycoprotein Efflux” Mol. Pharmac.
# [1] = target: P-glycoprotein (P-gp, rat Mdr1a) (Rattus norvegicus, UniProt Q6PSM0); assay: P-gp transport, experimental BA/AB ratio, rat LLC-Mdr1a; type: in vitro ADME; details: LLC-PK1; rat LLC-Mdrla; 1 μM substrate concentration
# Chain of P-glycoprotein (P-gp, rat Mdr1a) (Q6PSM0 1-1272): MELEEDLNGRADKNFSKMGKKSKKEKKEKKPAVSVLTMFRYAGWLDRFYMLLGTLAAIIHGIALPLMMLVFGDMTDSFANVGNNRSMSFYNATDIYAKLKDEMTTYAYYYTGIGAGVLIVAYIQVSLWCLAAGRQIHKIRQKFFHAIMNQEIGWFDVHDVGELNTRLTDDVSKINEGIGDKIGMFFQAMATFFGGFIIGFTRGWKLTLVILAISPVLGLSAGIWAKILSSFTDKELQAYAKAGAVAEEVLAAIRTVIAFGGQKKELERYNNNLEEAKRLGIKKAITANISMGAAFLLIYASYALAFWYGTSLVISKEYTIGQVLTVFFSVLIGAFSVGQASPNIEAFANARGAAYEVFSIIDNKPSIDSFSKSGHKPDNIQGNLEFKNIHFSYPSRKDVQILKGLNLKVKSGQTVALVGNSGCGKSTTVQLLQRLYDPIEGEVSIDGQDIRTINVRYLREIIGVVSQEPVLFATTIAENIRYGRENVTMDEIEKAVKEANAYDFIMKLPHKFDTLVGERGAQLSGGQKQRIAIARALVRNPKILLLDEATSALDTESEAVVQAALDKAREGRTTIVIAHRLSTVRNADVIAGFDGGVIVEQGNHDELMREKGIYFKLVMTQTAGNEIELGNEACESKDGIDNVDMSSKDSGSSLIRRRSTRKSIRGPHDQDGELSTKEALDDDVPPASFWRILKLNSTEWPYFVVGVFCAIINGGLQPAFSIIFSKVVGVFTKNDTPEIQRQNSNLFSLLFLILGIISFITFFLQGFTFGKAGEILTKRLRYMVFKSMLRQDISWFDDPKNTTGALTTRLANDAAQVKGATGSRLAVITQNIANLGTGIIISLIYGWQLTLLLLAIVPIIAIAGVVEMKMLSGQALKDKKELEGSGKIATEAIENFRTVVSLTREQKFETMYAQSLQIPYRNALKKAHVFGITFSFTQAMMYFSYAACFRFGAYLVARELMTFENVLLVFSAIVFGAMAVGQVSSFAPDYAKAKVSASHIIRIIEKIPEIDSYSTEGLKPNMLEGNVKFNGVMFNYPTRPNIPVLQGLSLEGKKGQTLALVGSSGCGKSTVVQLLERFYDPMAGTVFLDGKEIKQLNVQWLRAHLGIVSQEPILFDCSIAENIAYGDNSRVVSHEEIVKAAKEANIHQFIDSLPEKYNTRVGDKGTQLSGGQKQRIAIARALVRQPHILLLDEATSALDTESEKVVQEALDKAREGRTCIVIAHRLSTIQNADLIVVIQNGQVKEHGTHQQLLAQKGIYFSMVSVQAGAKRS
# Source text: as §1
# [2] = Lab B, read-out: Rhesus PDE2 Ki (nM) - Lab B
# [3] = Lab B, read-out: Human PDE2 Ki (nM) - Lab B
# [4] = Lab A, read-out: Rhesus PDE2 Ki (nM) - Lab A
# [5] = Lab A, read-out: Human PDE2 Ki (nM) - Lab A
# Chain of human PDE2A1 (O00408 other isoform, or with tags, fused parts or gaps): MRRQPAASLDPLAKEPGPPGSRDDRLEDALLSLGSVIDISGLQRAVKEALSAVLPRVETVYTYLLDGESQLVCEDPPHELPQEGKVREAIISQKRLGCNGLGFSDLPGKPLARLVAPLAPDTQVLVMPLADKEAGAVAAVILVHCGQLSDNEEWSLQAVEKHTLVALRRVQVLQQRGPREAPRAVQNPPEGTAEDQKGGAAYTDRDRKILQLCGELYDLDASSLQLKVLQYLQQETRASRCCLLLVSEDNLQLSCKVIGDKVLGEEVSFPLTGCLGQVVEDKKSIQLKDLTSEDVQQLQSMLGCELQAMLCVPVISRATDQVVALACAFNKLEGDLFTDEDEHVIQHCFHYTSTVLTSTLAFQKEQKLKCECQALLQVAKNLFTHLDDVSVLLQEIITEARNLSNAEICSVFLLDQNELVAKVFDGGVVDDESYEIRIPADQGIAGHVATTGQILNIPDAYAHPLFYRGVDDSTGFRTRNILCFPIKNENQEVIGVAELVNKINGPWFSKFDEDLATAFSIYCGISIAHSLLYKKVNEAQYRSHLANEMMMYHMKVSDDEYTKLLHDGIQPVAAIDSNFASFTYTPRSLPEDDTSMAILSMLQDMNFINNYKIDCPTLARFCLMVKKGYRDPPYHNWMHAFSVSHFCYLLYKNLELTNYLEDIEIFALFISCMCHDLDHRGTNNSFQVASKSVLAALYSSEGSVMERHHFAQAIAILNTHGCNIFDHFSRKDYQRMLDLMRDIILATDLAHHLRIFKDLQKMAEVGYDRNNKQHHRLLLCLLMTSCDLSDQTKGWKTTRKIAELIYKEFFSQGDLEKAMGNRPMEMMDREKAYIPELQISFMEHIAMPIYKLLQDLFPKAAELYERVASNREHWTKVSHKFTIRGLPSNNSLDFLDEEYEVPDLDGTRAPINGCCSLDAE
# Chain of Rhesus PDE2A3 (B3VTJ2 1-941): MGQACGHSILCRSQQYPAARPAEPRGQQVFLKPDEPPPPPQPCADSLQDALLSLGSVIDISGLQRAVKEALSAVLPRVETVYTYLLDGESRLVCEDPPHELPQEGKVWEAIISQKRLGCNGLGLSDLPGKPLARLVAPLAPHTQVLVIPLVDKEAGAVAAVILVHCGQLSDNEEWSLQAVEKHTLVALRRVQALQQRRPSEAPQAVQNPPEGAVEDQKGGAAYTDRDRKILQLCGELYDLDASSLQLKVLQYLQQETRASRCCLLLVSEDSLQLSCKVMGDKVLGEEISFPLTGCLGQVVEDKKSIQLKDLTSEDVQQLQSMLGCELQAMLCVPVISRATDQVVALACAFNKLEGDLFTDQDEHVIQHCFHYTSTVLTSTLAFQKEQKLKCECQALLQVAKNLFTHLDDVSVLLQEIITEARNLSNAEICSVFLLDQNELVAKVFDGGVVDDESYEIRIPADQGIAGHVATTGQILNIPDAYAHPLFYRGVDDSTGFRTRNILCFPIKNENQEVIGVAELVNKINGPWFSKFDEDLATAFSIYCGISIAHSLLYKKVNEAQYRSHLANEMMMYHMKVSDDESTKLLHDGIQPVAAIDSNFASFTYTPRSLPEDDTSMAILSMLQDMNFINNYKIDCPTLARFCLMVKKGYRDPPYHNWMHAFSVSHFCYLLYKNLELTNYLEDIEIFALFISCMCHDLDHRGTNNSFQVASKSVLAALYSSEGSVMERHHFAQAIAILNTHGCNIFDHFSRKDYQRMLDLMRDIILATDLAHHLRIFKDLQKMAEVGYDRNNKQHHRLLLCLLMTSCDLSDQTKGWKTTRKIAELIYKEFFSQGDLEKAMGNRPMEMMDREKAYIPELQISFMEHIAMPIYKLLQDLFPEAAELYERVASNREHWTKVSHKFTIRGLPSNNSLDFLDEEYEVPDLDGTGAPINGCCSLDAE
smiles,measurement,setting,value
"CN(C)c1nc(C(=O)N[C@@H](c2ccc(S(F)(F)(F)(F)F)cc2)C2(C)CC2)cc(=O)[nH]1 [Example 57, 2-(dimethylamino)-N-{(R)-(1-methylcyclopropyl)[4-(pentafluoro-λ^6-sulfanyl)phenyl]methyl}-6-oxo-1,6-dihydropyrimidine-4-carboxamide]",Ki,Rhesus PDE2A3; [2],0.28 nM
same,Ki,human PDE2A1; [3],0.31 nM
same,efflux ratio at 1 μM,P-glycoprotein (P-gp),1.7
same,efflux ratio at 1 μM,[1],0.7
"CN(C)c1nc(C(=O)N[C@@H](c2ccc(C3CC3)c(F)c2)C(C)(C)C)cc(=O)[nH]1 [Example 58, N-[(1R)-1-(4-cyclopropyl-3-fluorophenyl)-2,2-dimethylpropyl]-2-(dimethylamino)-6-oxo-1,6-dihydropyrimidine-4-carboxamide]",Ki,Rhesus PDE2A3; [2],0.1 nM
same,Ki,human PDE2A1; [3],0.03 nM
same,efflux ratio at 1 μM,P-glycoprotein (P-gp),1.3
same,efflux ratio at 1 μM,[1],4.7
"CN(C)c1nc(C(=O)N[C@@H](c2ccc(C(F)F)cc2)C(C)(C)C)cc(=O)[nH]1 [Example 60, N-{(1R)-1-[4-(difluoromethyl)phenyl]-2,2-dimethylpropyl}-2-(dimethylamino)-6-oxo-1,6-dihydropyrimidine-4-carboxamide]",Ki,Rhesus PDE2A3; [2],0.42 nM
same,Ki,human PDE2A1; [3],0.29 nM
same,efflux ratio at 1 μM,P-glycoprotein (P-gp),0.8
same,efflux ratio at 1 μM,[1],4.3
"CN(C)c1nc(C(=O)N[C@@H](c2ccc(C(F)F)cc2)C2(C)CC2)cc(=O)[nH]1 [Example 61, N-[(R)-[4-(difluoromethyl)phenyl](1-methylcyclopropyl)methyl]-2-(dimethylamino)-6-oxo-1,6-dihydropyrimidine-4-carboxamide]",Ki,Rhesus PDE2A3; [2],0.82 nM
same,Ki,human PDE2A1; [3],0.75 nM
same,efflux ratio at 1 μM,P-glycoprotein (P-gp),1.6
same,efflux ratio at 1 μM,[1],12.3
"CN(C)c1nc(C(=O)N[C@@H](c2ccc(C(F)F)c(F)c2)C(C)(C)C)cc(=O)[nH]1 [Example 62, N-{(1R)-1-[4-(difluoromethyl)-3-fluorophenyl]-2,2-dimethylpropyl}-2-(dimethylamino)-6-oxo-1,6-dihydropyrimidine-4-carboxamide]",Ki,Rhesus PDE2A3; [2],0.55 nM
same,Ki,human PDE2A1; [3],0.52 nM
same,efflux ratio at 1 μM,P-glycoprotein (P-gp),1.2
same,efflux ratio at 1 μM,[1],5.2
"CN(C)c1nc(C(=O)N[C@@H](c2ccc(C3CC3)cc2)C2(C)CC2)cc(=O)[nH]1 [Example 71, N-[(R)-(4-cyclopropylphenyl)(1-methylcyclopropyl)methyl]-2-(dimethylamino)-6-oxo-1,6-dihydropyrimidine-4-carboxamide]",Ki,Rhesus PDE2A3; [2],0.23 nM
same,Ki,human PDE2A1; [3],0.21 nM
same,efflux ratio at 1 μM,P-glycoprotein (P-gp),0.3
same,efflux ratio at 1 μM,[1],4.8
"CN(C)c1nc(C(=O)N[C@@H](c2ccc(C(F)F)cc2F)C(C)(C)C)cc(=O)[nH]1 [Example 73, N-{(1R)-1-[4-(difluoromethyl)-2-fluorophenyl]-2,2-dimethylpropyl}-2-(dimethylamino)-6-oxo-1,6-dihydropyrimidine-4-carboxamide]",Ki,Rhesus PDE2A3; [2],0.26 nM
same,Ki,human PDE2A1; [3],0.17 nM
same,efflux ratio at 1 μM,P-glycoprotein (P-gp),1.2
same,efflux ratio at 1 μM,[1],6.9
"CN(C)c1nc(C(=O)N[C@@H](c2ccc(C(C)(F)F)cc2)C(C)(C)C)cc(=O)[nH]1 [Example 76, N-{(1R)-1-[4-(1,1-difluoroethyl)phenyl]-2,2-dimethylpropyl}-2-(dimethylamino)-6-oxo-1,6-dihydropyrimidine-4-carboxamide]",Ki,Rhesus PDE2A3; [2],0.11 nM
same,Ki,human PDE2A1; [3],0.12 nM
same,efflux ratio at 1 μM,P-glycoprotein (P-gp),1.6
same,efflux ratio at 1 μM,[1],4.5
"CC(C)[C@@H](NC(=O)c1cc(=O)[nH]c(N(C)C)n1)c1ccc(C(C)(F)F)c(F)c1 [Example 77, N-{(1R)-1-[4-(1,1-difluoroethyl)-3-fluorophenyl]-2-methylpropyl}-2-(dimethylamino)-6-oxo-1,6-dihydropyrimidine-4-carboxamide]",Ki,Rhesus PDE2A3; [2],0.21 nM
same,Ki,human PDE2A1; [3],0.19 nM
same,efflux ratio at 1 μM,P-glycoprotein (P-gp),1.1
same,efflux ratio at 1 μM,[1],7.3
"COc1cc(C(F)(F)F)ccc1C(C)(C)NC(=O)c1cc(=O)[nH]c(N(C)C)n1 [Example 79, 2-(dimethylamino)-N-{1-[2-methoxy-4-(trifluoromethyl)phenyl]-1-methylethyl}-6-oxo-1,6-dihydropyrimidine-4-carboxamide]",Ki,Rhesus PDE2A3; [2],6.4 nM
same,Ki,human PDE2A1; [3],7.7 nM
same,efflux ratio at 1 μM,P-glycoprotein (P-gp),0.9
same,efflux ratio at 1 μM,[1],6.2
"CN(C)c1nc(C(=O)NC(C)(C)c2ccc(C(F)(F)F)cc2Cl)cc(=O)[nH]1 [Example 80, N-{1-[2-chloro-4-(trifluoromethyl)phenyl]-1-methylethyl}-2-(dimethylamino)-6-oxo-1,6-dihydropyrimidine-4-carboxamide]",Ki,Rhesus PDE2A3; [2],0.65 nM
same,Ki,human PDE2A1; [3],0.79 nM
same,efflux ratio at 1 μM,P-glycoprotein (P-gp),0.4
same,efflux ratio at 1 μM,[1],1.7
"C[C@@H](NC(=O)c1cc(=O)[nH]c(N(C)C)n1)c1ccc(OC(F)(F)F)cc1 [Example 87, 2-(dimethylamino)-6-oxo-N-{(1R)-1-[4-(trifluoromethoxy)phenyl]ethyl}-1,6-dihydropyrimidine-4-carboxamide]",Ki,Rhesus PDE2A3; [4],1.1 nM
same,Ki,human PDE2A1; [5],0.74 nM
same,efflux ratio at 1 μM,P-glycoprotein (P-gp),0.5
same,efflux ratio at 1 μM,[1],2.2
"CC[C@@H](NC(=O)c1cc(=O)[nH]c(N(C)C)n1)c1ccc(SC(F)(F)F)cc1 [Example 88, 2-(dimethylamino)-6-oxo-N-[(1R)-1-{4-[(trifluoromethyl)sulfanyl]phenyl}propyl]-1,6-dihydropyrimidine-4-carboxamide]",Ki,Rhesus PDE2A3; [4],0.61 nM
same,Ki,Rhesus PDE2A3; [2],0.51 nM
same,Ki,human PDE2A1; [5],5.05 nM
same,Ki,human PDE2A1; [3],0.69 nM
same,efflux ratio at 1 μM,P-glycoprotein (P-gp),0.3
same,efflux ratio at 1 μM,[1],1.8
"C[C@@H](NC(=O)c1cc(=O)[nH]c(N(C)C)n1)c1ccc(S(F)(F)(F)(F)F)cc1 [Example 89, 2-(dimethylamino)-6-oxo-N-{(1R)-1-[4-(pentafluoro-λ^6-sulfanyl)phenyl]ethyl}-1,6-dihydropyrimidine-4-carboxamide]",Ki,Rhesus PDE2A3; [4],1.1 nM
same,Ki,human PDE2A1; [5],0.41 nM
same,efflux ratio at 1 μM,P-glycoprotein (P-gp),0.4
same,efflux ratio at 1 μM,[1],2.9
"C[C@@H](NC(=O)c1cc(=O)[nH]c(N(C)C)n1)c1ccc(OC(F)(F)F)c(F)c1 [Example 90, 2-(dimethylamino)-N-{(1R)-1-[3-fluoro-4-(trifluoromethoxy)phenyl]ethyl}-6-oxo-1,6-dihydropyrimidine-4-carboxamide]",Ki,Rhesus PDE2A3; [4],0.69 nM
same,Ki,human PDE2A1; [5],0.28 nM
same,efflux ratio at 1 μM,P-glycoprotein (P-gp),0.5
same,efflux ratio at 1 μM,[1],2.7
"CC(C)[C@@H](NC(=O)c1cc(=O)[nH]c(N(C)C)n1)c1ccc(OC(F)(F)F)cc1 [Example 91, 2-(dimethylamino)-N-{(1R)-2-methyl-1-[4-(trifluoromethoxy)phenyl]propyl}-6-oxo-1,6-dihydropyrimidine-4-carboxamide]",Ki,Rhesus PDE2A3; [4],0.64 nM
same,Ki,human PDE2A1; [5],0.19 nM
same,efflux ratio at 1 μM,P-glycoprotein (P-gp),0.6
same,efflux ratio at 1 μM,[1],5.1
"CN(C)c1nc(C(=O)NC2(c3ccc(SC(F)(F)F)cc3)CC2)cc(=O)[nH]1 [Example 92, 2-(dimethylamino)-6-oxo-N-(1-{4-[(trifluoromethyl)sulfanyl]phenyl}cyclopropyl)-1,6-dihydropyrimidine-4-carboxamide]",Ki,Rhesus PDE2A3; [4],2.5 nM
same,Ki,human PDE2A1; [5],1.8 nM
same,efflux ratio at 1 μM,P-glycoprotein (P-gp),0.4
same,efflux ratio at 1 μM,[1],1.7
"CN(C)c1nc(C(=O)NC(C)(C)c2ccc(C(F)(F)F)c(F)c2)cc(=O)[nH]1 [Example 93, 2-(dimethylamino)-N-{1-[3-fluoro-4-(trifluoromethyl)phenyl]-1-methylethyl}-6-oxo-1,6-dihydropyrimidine-4-carboxamide]",Ki,Rhesus PDE2A3; [4],4 nM
same,Ki,human PDE2A1; [5],3.8 nM
same,efflux ratio at 1 μM,P-glycoprotein (P-gp),0.3
same,efflux ratio at 1 μM,[1],1.9
"CN(C)c1nc(C(=O)NC2(c3ccc(C(F)(F)F)c(F)c3)CC2)cc(=O)[nH]1 [Example 94, 2-(dimethylamino)-N-{1-[3-fluoro-4-(trifluoromethyl)phenyl]cyclopropyl}-6-oxo-1,6-dihydropyrimidine-4-carboxamide]",Ki,Rhesus PDE2A3; [4],1.2 nM
same,Ki,Rhesus PDE2A3; [2],0.8 nM
same,Ki,human PDE2A1; [5],0.9 nM
same,Ki,human PDE2A1; [3],0.96 nM
same,efflux ratio at 1 μM,P-glycoprotein (P-gp),0.5
same,efflux ratio at 1 μM,[1],2.6
"CC(C)[C@@H](NC(=O)c1cc(=O)[nH]c(N2CCCC2)n1)c1ccc(C(F)(F)F)cc1 [Example 95, N-{(1R)-2-methyl-1-[4-(trifluoromethyl)phenyl]propyl}-6-oxo-2-pyrrolidin-1-yl-1,6-dihydropyrimidine-4-carboxamide]",Ki,Rhesus PDE2A3; [4],0.39 nM
same,Ki,human PDE2A1; [5],0.18 nM
same,efflux ratio at 1 μM,P-glycoprotein (P-gp),1
same,efflux ratio at 1 μM,[1],4.5
"C[C@@H](NC(=O)c1cc(=O)[nH]c(N(C)C)n1)c1ccc(SC(F)(F)F)c(F)c1 [Example 96, 2-(dimethylamino)-N-[(1R)-1-{3-fluoro-4-[(trifluoromethyl)sulfanyl]phenyl}ethyl]-6-oxo-1,6-dihydropyrimidine-4-carboxamide]",Ki,Rhesus PDE2A3; [4],0.36 nM
same,Ki,human PDE2A1; [5],0.2 nM
same,efflux ratio at 1 μM,P-glycoprotein (P-gp),0.5
same,efflux ratio at 1 μM,[1],2.5
"CN(C)c1nc(C(=O)N[C@@H](c2ccc(SC(F)(F)F)c(F)c2)C2CC2)cc(=O)[nH]1 [Example 97, N-[(R)-cyclopropyl{3-fluoro-4-[(trifluoromethyl)sulfanyl]phenyl}methyl]-2-(dimethylamino)-6-oxo-1,6-dihydropyrimidine-4-carboxamide]",Ki,Rhesus PDE2A3; [4],0.62 nM
same,Ki,human PDE2A1; [5],0.34 nM
same,efflux ratio at 1 μM,P-glycoprotein (P-gp),0.4
same,efflux ratio at 1 μM,[1],1.8

# Reference: US10285989B2, “Pyrimidinone amide compounds as PDE2 inhibitors” (Merck Sharp & Dohme Corp., priority 2015, dated 2019)
